Experimental data: paper PMC4117522, “Proteasome Inhibitors Alter Levels of Intracellular Peptides in HEK293T and SH-SY5Y Cells” (PLoS ONE, 2014)

Tests used:
[1] = test system: HEK293T cell aminopeptidase activity (Ala-AMC cleavage); assay: Aminopeptidase assay with Ala-AMC in HEK293T cell extracts; assay type: biochemical, human; settings: HEK293T cell extract, 10 µM inhibitor
Procedure: (§1) All enzyme assays described below were performed in the linear range of the assay, as determined from time-course studies. HEK293T cells were lysed by sonication in 50 mM TrisHCl buffer, pH 7.5, containing 40 mM KCl, 5 mM MgCl2, 0.5 mM ATP, and 1 mM DTT (Buffer 1).
(§2) To measure TPP2, the fluorescent substrate was Ala-Ala-Phe-AMC. Aminopeptidase (AP) assays were performed with Leu-AMC and Ala-AMC, which detect leucine aminopeptidase (LAP), puromycin-sensitive aminopeptidase (PSAP), and other enzymes. To measure the effect of aminopeptidase/proteasome inhibitors on cleavage of Ala-Ala-Phe-AMC and Leu-AMC, 1∶50 dilution of the cell extract was pre-incubated with the inhibitor and Buffer 1 for 30 min, followed by addition of 100 µM final concentration of the respective substrate. For Ala-AMC, the same dilution of the cell extract was pre-incubated with the inhibitor and 50 mM MOPS buffer, pH 7.5, containing 40 mM KCl, 5 mM MgCl2, 0.5 mM ATP, and 1 mM DTT (Buffer 2), followed by addition of 100 µM final concentration of the substrate. After incubation at 37°C for 1 hour, enzyme activity was quantified by fluorescence measurement of the substrate (380 nm excitation, 460 nm emission).
(§3) Figure 7 Effect of aminopeptidase inhibitors on Ala-AMC and Leu-AMC cleavage. HEK 293T cell extract (panels A–D) or recombinant PSAP (panels E–F) were treated with increasing concentrations of bestatin or puromycin for 30 minutes followed by the addition of substrate and incubation for 1 hour. Enzyme activity was determined by fluorescence measurement of AMC and expressed as percentage enzyme activity relative to the control without inhibitor. (A) Bestatin inhibition of HEK293T cell extract assayed with Ala-AMC. (B) Bestatin inhibition of HEK293T cell extract assayed with Leu-AMC. (C) Puromycin inhibition of HEK293T cell extract assayed with Ala-AMC. (D) Puromycin inhibition of HEK293T cell extract assayed with Leu-AMC. (E) Puromycin inhibition of purified PSAP assayed with Ala-AMC. (F) Puromycin inhibition of purified PSAP assayed with Leu-AMC. Error bars show standard error of mean (n = 4), points without error bars had error ranges smaller than the symbol size. Statistical analysis was performed using Student’s t-test: *, p≤0.05; **, p≤0.01; ***, p≤0.001; ns, no significant difference (p>0.05) versus the control.
(§4) Figure 8 Effect of proteasome inhibitors on Ala-AMC and Leu-AMC cleavage. HEK 293T cell extract or recombinant PSAP was treated with 10 µM of each of the proteasome inhibitors for 1 hour in addition to a 30 min pre-incubation without the substrate. Enzyme activity was determined by fluorescence measurement of AMC and expressed as percentage enzyme activity relative to the control without inhibitor. Panels A and B represent the effect of proteasome inhibitors on cleavage of Ala-AMC and Leu-AMC respectively, in HEK293T cell extract. […] Error bars show standard error of mean (n = 4). Statistical analysis was performed using Student’s t-test: *, p≤0.05; **, p≤0.01; ***, p≤0.001; ns, no significant difference (p>0.05) versus the control.

[2] = test system: HEK293T cell aminopeptidase activity (Leu-AMC cleavage); assay: Aminopeptidase assay with Leu-AMC in HEK293T cell extracts; assay type: biochemical, human; settings: HEK293T cell extract, 10 µM inhibitor
Procedure: as §1, §2, §3, §4

For CN1C/C(=C/c2ccc(B(O)O)cc2)C(=O)/C(=C\c2ccc(B(O)O)cc2)C1 [AM114, reference compound], which “effect on cleavage of Ala-AMC” value [1] is on record?
The value was “without effect”.

What about the “effect on cleavage of Leu-AMC” value [2] of the same compound?
The value was “without effect”.
